Assay results from US20070197532A1, “GLUCOKINASE ACTIVATORS” (priority 2005, published 2007).

target: T1, glucokinase (GK) (Homo sapiens, UniProt P35557); test: enzymatic glucokinase activity assay (ATP consumption, KinaseGlo luminescence); assay type: biochemical; conditions: recombinant GK; 5 μM ATP, 5 mM Glucose, 2% DMSO, 60 min at room temperature; Kact = concentration giving 50% of the maximal increase in GK activity; read-out: pKact
T1 construct: I.D. No. 1 corresponds to residues 13-466 of glucokinase; made in house; host or cells: E. coli DH10b-T1r
T1 sequence (P35557 with tags, fused parts or gaps isoform P35557-2): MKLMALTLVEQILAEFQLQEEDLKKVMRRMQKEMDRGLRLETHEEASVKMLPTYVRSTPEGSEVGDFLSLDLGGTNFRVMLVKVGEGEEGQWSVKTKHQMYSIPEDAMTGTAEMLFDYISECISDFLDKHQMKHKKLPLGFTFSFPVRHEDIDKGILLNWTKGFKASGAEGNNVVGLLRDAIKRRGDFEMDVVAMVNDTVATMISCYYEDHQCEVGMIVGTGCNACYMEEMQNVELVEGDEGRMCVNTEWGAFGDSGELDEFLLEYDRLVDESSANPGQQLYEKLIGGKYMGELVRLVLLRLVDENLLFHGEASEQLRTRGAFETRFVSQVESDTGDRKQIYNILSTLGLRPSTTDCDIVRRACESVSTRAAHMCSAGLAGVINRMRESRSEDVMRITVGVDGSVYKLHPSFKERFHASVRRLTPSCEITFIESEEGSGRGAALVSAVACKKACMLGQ
From the text: The activity of compounds as glucokinase activators may be assayed in vitro, in vivo or in a cell line. Provided below is an enzymatic glucokinase activity assay.
Purified glucokinase may be obtained as follows. DNA encoding residues 12-465 of the full-length sequence of the human enzyme may be amplified by PCR and cloned into the HindIII and EcoRI sites of pFLAG-CTC (Sigma). SEQ. I.D. No. 1 corresponds to residues 13-466 of glucokinase.
The expression of recombinant glucokinase protein may be carried out by transformation and growth of DH10b-T1r E. coli cells incorporating the (pFLAG-CTC) plasmid in LB media. Protein expression can be induced in this system by the addition of IPTG to the culture medium.
Recombinant protein may be isolated from cellular extracts by passage over Sepharose Q Fast Flow resin (Pharmacia). This partially purified GK extract may then be further purified by a second passage over Poros HQ10 (Applied Biosystems). The purity of GK may be determined on denaturing SDS-PAGE gel. Purified GK may then be concentrated to a final concentration of 20.0 mg/ml. After flash freezing in liquid nitrogen, the proteins can be stored at −78° C. in a buffer containing 25 mM TRIS-HCl pH 7.6, 50 mM NaCl, and 0.5 mM TCEP.
The activation properties of compounds for GK may be determined using a black 384-well-plate format under the following reaction conditions: 25 mM Hepes pH 7.2, 25 mM NaCl, 10 mM MgCl2, 0.01% Brij35, 1 mM DTT, 5 μM ATP, 5 mM Glucose 2% DMSO. The amount of ATP consumed may be determined quantitatively by addition of equal volume of luciferase reagent (luciferase+beetle luciferin—KinaseGlo Luminescent Kinase Assay kit from Promega). The luminescence intensity may be measured by using the Analyst HT from LJL Biosystems.
The assay reaction may be initiated as follows: 4 μl of substrate mixture (12.5 μM ATP and 12.5 mM Glucose) was added to each well of the plate, followed by the addition of 2 μl of activator (2 fold serial dilutions for 11 data points for each activator) containing 10% DMSO. 4 μL of 1.25 nM GK solution may be added to initiate the reaction. The reaction mixture may then be incubated at room temperature for 60 min, and quenched and developed by addition of 10 μL of luciferase reagent. Luminescence intensities of the resulting reaction mixtures may be measured after a 10 min incubation at room temperature. The luminescence intensity may be measured by using the Analyst HT from LJL Biosystems.
pKact and % ACTmax values may be calculated by non-linear curve fitting of the compound concentrations and luminescence intensities to a standard inhibition/activation equation.

Row | Compound | EC50
1 | FC(F)(F)COc1ccc(OCC(F)(F)F)c(-c2ccn[nH]2)c1 | ≤ 2000 nM
2 | CC1(C)Cc2cccc(-c3cc(-c4ccccc4)n[nH]3)c2O1 | ≤ 2000 nM
3 | Cc1ccccc1COc1cc(Oc2ccc(S(C)(=O)=O)cc2)cc(-c2cc(O)n[nH]2)c1 | ≥ 5010 nM
4 | COc1ccccc1-c1cc(-c2cccc(N)c2)n[nH]1 | 2510 to 3980 nM
5 | Fc1ccc(-c2cc(-c3cccc(Oc4ncccn4)c3)[nH]n2)cc1 | ≥ 5010 nM
6 | COc1cc([N+](=O)[O-])ccc1-c1cc(-c2ccccc2)n[nH]1 | ≤ 2000 nM
7 | COc1ccccc1-c1nnc(SCC(=O)Nc2ccccc2[N+](=O)[O-])[nH]1 | ≤ 2000 nM
8 | COC[C@H](C)Oc1cc(OCCc2ccsc2)cc(-c2cc(OC)n[nH]2)c1 | ≤ 2000 nM
9 | COc1ccccc1-c1cc(-c2ccccc2)n[nH]1 | 2510 to 3980 nM
10 | COC[C@H](C)Oc1cc(OCc2ccccc2F)cc(-c2cc(OC)n[nH]2)c1 | ≥ 5010 nM
11 | COc1cc(-c2cc(OCc3ccccc3C)cc(Oc3ccc(S(C)(=O)=O)cc3)c2)[nH]n1 | ≤ 2000 nM
12 | COc1ccccc1-c1cc(-c2ccc(N3CCOCC3)nc2)n[nH]1 | ≥ 5010 nM
13 | c1ccc(COc2ccc(-c3cc(-c4ccccc4)n[nH]3)c(OCc3ccccn3)c2)cc1 | ≤ 2000 nM
14 | COc1ccccc1-c1cc(-c2ccc(F)cc2)n[nH]1 | 2510 to 3980 nM
15 | COCCNc1ccc(-c2cc(-c3ccccc3OC)[nH]n2)cn1 | 2510 to 3980 nM
16 | COc1ccccc1-c1nc(SCC(=O)c2ccc(O)c(O)c2)n[nH]1 | 2510 to 3980 nM
17 | COc1ccccc1-c1cc(-c2ccc(N(C)C)nc2)n[nH]1 | 2510 to 3980 nM
18 | c1ccc(-c2cc(-c3cccc4c3OCC4)[nH]n2)cc1 | 2510 to 3980 nM
19 | COc1ccccc1-c1cc(-c2cccc(F)c2)[nH]n1 | ≥ 5010 nM
20 | Cn1ccnc1COc1ccccc1-c1cc(-c2ccc(F)cc2)n[nH]1 | ≤ 2000 nM

Row | Compound | EC50
21 | COc1ccccc1-c1nc(SCc2ccccc2F)n[nH]1 | 2510 to 3980 nM
22 | COc1cc(OCc2ccccc2)ccc1-c1cc(-c2ccc(F)cc2)n[nH]1 | ≤ 2000 nM
23 | COCCOc1cc(OCc2ccccc2)ccc1-c1cc(-c2ccccc2)n[nH]1 | ≤ 2000 nM
24 | COc1cc(-c2cc(OCc3ncccc3C)cc(Oc3ccc(S(C)(=O)=O)cc3)c2)[nH]n1 | ≤ 2000 nM
25 | Cc1cccnc1COc1cc(Oc2ccc(S(C)(=O)=O)cc2)cc(-c2cc(O)n[nH]2)c1 | ≥ 5010 nM
26 | Fc1ccccc1COc1cc(-c2cccc3c2OCC3)[nH]n1 | ≥ 5010 nM
27 | COc1cc(-c2cc(Oc3ccc(S(C)(=O)=O)cc3)cc(OC3CCCC3)c2)[nH]n1 | ≤ 2000 nM
28 | COc1ccccc1-c1cc(-c2ccccc2Cl)n[nH]1 | 2510 to 3980 nM
29 | COc1ccccc1-c1nnc(SCC(=O)Nc2ccc(C)c(C)c2)[nH]1 | ≤ 2000 nM
30 | COc1ccccc1-c1cc(-c2cccc(NC(=O)c3ccccc3)c2)n[nH]1 | 2510 to 3980 nM
31 | COc1ccc(NCc2ccccc2)cc1-c1cc(-c2ccccc2)n[nH]1 | ≥ 5010 nM
32 | Brc1cc2c(c(-c3cc(-c4ccccc4)n[nH]3)c1)OCC2 | ≥ 5010 nM
33 | COC[C@H](C)Oc1cc(Oc2ccc(S(C)(=O)=O)cc2)cc(-c2cc(OC)n[nH]2)c1 | ≤ 2000 nM
34 | Clc1cccc(Oc2ccccc2-c2cc(-c3cccnc3)n[nH]2)c1 | 2510 to 3980 nM
35 | COc1ccccc1-c1cc(-c2cccc(NC(C)=O)c2)n[nH]1 | ≥ 5010 nM
36 | COc1ccc(NC(=O)c2cncs2)cc1-c1cc(-c2ccccc2)n[nH]1 | ≥ 5010 nM
37 | COc1ccccc1-c1cc(-c2ccc(N)cc2)n[nH]1 | ≥ 5010 nM
38 | COc1cc(-c2cc(OCc3ccccc3F)cc(Oc3ccc(S(C)(=O)=O)cc3)c2)[nH]n1 | ≤ 2000 nM
39 | CS(=O)(=O)c1ccc(Oc2cc(OCc3ccccc3F)cc(-c3cc(O)n[nH]3)c2)cc1 | ≥ 5010 nM
40 | Fc1ccc(-c2cc(-c3ccccc3Oc3ccccc3)[nH]n2)cc1 | 2510 to 3980 nM

Continued, values first:

Row | EC50 | Compound
41 | ≤ 2000 nM | Fc1ccc(-c2cc(-c3cccc(Oc4ccccc4)c3)[nH]n2)cc1
42 | ≤ 2000 nM | COc1ccc(CNc2ccc(-c3cc(-c4ccccc4OC)[nH]n3)cn2)c(OC)c1
43 | ≥ 5010 nM | COc1ccccc1-c1cc(OCc2ccccc2F)n[nH]1
44 | 2510 to 3980 nM | c1ccc(-c2cc(-c3ccccc3Oc3cccnc3)[nH]n2)cc1
45 | 2510 to 3980 nM | COc1ccc(NC(=O)c2ccccc2)cc1-c1cc(-c2ccccc2)n[nH]1
46 | ≤ 2000 nM | COc1ccc(NC(=O)Cc2ccccc2)cc1-c1cc(-c2ccccc2)n[nH]1
47 | 2510 to 3980 nM | COc1cc(NCc2ccccc2)ccc1-c1cc(-c2ccccc2)n[nH]1
48 | 2510 to 3980 nM | COC[C@H](C)Oc1cc(Oc2ccc(S(C)(=O)=O)cc2)cc(-c2cc(OCC(=O)OC)n[nH]2)c1
49 | 2510 to 3980 nM | COc1ccc(COc2ccc(-c3cc(-c4ccccc4)n[nH]3)c(OC)c2)cc1
50 | 2510 to 3980 nM | COC[C@H](C)Oc1cc(OCc2ccc(S(C)(=O)=O)cc2)cc(-c2cc(OC)n[nH]2)c1
51 | 2510 to 3980 nM | COc1ccccc1-c1cc(-c2cccc(C#N)c2)n[nH]1
52 | ≥ 5010 nM | COc1cc(-c2ccc3ncn(CC4CCCCC4)c3c2)[nH]n1
53 | 2510 to 3980 nM | COc1ccccc1-c1cc(-c2ccc(C#N)cc2)n[nH]1
54 | ≥ 5010 nM | COc1ccc(F)cc1-c1cc(OCc2ccccc2F)n[nH]1
55 | ≤ 2000 nM | COc1ccccc1-c1nc(SCC(=O)N2CCOCC2)n[nH]1
56 | 2510 to 3980 nM | COc1ccc(F)cc1-c1cc(-c2cccc(F)c2)[nH]n1
57 | 2510 to 3980 nM | c1ccc(-c2cc(-c3ccccc3OCc3ccccn3)[nH]n2)cc1
58 | ≤ 2000 nM | COc1cc(NC(=O)c2ccccc2)ccc1-c1cc(-c2ccccc2)n[nH]1
59 | 2510 to 3980 nM | COc1ccc(NC(=O)c2ccoc2)cc1-c1cc(-c2ccccc2)n[nH]1
60 | ≤ 2000 nM | Fc1ccccc1CSc1n[nH]c(-c2ccccc2OCc2ccccc2)n1
61 | 2510 to 3980 nM | COc1ccc(NS(=O)(=O)c2ccccc2)cc1-c1cc(-c2ccccc2)n[nH]1
